These compounds were tested against EGFR (UniProt P00533).
Chain of EGFR (P00533 whole entry, looked up): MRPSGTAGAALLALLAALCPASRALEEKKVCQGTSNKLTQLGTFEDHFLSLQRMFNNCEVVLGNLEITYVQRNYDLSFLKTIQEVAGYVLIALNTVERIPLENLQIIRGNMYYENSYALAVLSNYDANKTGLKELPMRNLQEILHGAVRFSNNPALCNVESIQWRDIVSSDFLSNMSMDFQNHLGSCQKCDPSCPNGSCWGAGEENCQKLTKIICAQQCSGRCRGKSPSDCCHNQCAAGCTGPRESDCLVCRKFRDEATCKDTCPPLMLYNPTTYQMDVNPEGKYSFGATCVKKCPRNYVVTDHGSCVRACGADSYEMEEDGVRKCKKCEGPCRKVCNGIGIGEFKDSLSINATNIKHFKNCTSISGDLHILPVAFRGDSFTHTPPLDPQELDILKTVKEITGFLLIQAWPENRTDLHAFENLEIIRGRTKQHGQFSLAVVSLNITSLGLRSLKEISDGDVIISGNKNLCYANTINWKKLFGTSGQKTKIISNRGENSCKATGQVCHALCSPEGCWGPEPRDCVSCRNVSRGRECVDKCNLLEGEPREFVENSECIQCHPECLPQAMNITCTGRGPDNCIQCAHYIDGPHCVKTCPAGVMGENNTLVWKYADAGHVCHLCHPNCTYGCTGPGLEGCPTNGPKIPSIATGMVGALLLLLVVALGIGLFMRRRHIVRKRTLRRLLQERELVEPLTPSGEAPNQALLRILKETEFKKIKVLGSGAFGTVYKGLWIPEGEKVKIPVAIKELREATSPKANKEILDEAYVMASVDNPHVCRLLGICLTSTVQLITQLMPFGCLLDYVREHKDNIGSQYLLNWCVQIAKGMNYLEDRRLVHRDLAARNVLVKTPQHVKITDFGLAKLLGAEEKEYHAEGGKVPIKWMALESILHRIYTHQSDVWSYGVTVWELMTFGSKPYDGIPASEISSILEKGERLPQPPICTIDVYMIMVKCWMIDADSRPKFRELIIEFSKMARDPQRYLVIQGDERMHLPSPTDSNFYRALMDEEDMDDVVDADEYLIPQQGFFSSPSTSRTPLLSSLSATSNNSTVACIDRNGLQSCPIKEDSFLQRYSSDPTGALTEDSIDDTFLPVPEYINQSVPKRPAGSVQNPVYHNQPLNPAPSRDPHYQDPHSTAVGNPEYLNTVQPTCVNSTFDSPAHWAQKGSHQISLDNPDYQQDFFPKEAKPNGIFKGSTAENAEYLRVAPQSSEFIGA

Structure (SMILES)	IC50 [µM]
COc1cc2c(Nc3ccc(Cl)c(Cl)c3F)ncnc2cc1OC[C@@H]1CN2CCCC[C@@H]2C(=O)N1	< 0.05
COc1cc2c(Nc3ccc(Br)cc3F)ncnc2cc1OCC1CN(C)CCO1 (stereo not given)	< 0.05
COc1cc2c(Nc3ccc(Br)c(Cl)c3F)ncnc2cc1OC[C@@H]1CN2CCC[C@H]2CO1	< 0.05
COc1cc2c(Nc3ccc(Cl)c(Cl)c3)ncnc2cc1OCC1CN(S(=O)(=O)c2ccc(F)cc2)CCO1 (stereo not given)	< 0.05
COc1cc2c(Nc3ccc(Cl)c(Cl)c3F)ncnc2cc1O[C@@H]1CO[C@@H]2[C@H]1OC[C@H]2F	< 0.05
COc1cc2c(Nc3cc(Cl)c(Cl)cc3F)ncnc2cc1OC[C@H]1CN2CCOC[C@H]2CO1	< 0.05
COc1cc2c(Nc3ccc(Cl)c(Cl)c3Cl)ncnc2cc1O[C@H]1CO[C@H]2[C@@H]1OC[C@@H]2OC	< 0.05
COc1cc2c(Nc3ccc(Cl)c(Cl)c3)ncnc2cc1OCc1nc(N(C)C)no1	< 0.05
COc1cc2c(Nc3ccc(Cl)c(Cl)c3)ncnc2cc1OCc1nc2c(s1)CN(C)CC2	< 0.05
COc1cc2c(Nc3cc(Cl)ccc3Cl)ncnc2cc1O[C@@H]1CO[C@@H]2[C@H]1OC[C@H]2F	< 0.05
COc1cc2c(Nc3ccccc3Br)ncnc2cc1O[C@@H]1CO[C@@H]2[C@H]1OC[C@H]2F	< 0.05
COc1cc2c(Nc3ccc(Br)c(Cl)c3F)ncnc2cc1O[C@@H]1CO[C@@H]2[C@H]1OC[C@H]2F	< 0.05
COc1cc2c(Nc3ccc(Br)c(Cl)c3Cl)ncnc2cc1OCC1CN(C)CCO1 (stereo not given)	< 0.05
COc1cc2c(Nc3cc(F)c(F)cc3F)ncnc2cc1O[C@@H]1CO[C@@H]2[C@H]1OC[C@H]2F	< 0.05
COC[C@@]1(OC)CO[C@@H]2[C@H]1OC[C@H]2Oc1cc2ncnc(Nc3ccc(Br)c(Cl)c3)c2cc1OC	< 0.05
COc1cc2c(Nc3ccccc3Cl)ncnc2cc1O[C@@H]1CO[C@@H]2[C@H]1OC[C@H]2F	< 0.05
COc1cc2c(Nc3c(F)cc(F)cc3F)ncnc2cc1O[C@@H]1CO[C@@H]2[C@H]1OC[C@H]2F	< 0.05
COc1cc2c(Nc3ccc(Cl)c(Cl)c3)ncnc2cc1OCc1csc(C2CCCCN2)n1 (stereo not given)	< 0.05
COc1cc2c(Nc3ccc(F)cc3Cl)ncnc2cc1O[C@@H]1CO[C@@H]2[C@H]1OC[C@H]2F	< 0.05
COc1cc2c(Nc3ccc(Br)c(Cl)c3F)ncnc2cc1OC[C@@H]1CN(C)CC(=O)N1	< 0.05
COc1cc2c(Nc3c(F)cccc3F)ncnc2cc1O[C@@H]1CO[C@@H]2[C@H]1OC[C@H]2F	< 0.05

Structure (SMILES)	IC50 [µM]
COc1cc2c(Nc3ccc(Br)c(Cl)c3Cl)ncnc2cc1OC[C@@H]1CN2CCC[C@H]2CO1	< 0.05
COc1cc2c(Nc3ccc(Br)c(Cl)c3)ncnc2cc1O[C@H]1CO[C@@H]2[C@H]1OC[C@@H]2NS(C)(=O)=O	< 0.05
CCOc1cc2c(Nc3ccc(Cl)c(Cl)c3)ncnc2cc1OCC1CNCCO1 (stereo not given)	< 0.05
COc1cc2c(Nc3cc(Cl)c(Cl)c(Cl)c3)ncnc2cc1O[C@@H]1CO[C@@H]2[C@H]1OC[C@H]2F	< 0.05
COc1cc2c(Nc3ccc(Cl)c(Cl)c3)ncnc2cc1OCc1noc(C2CCN(C(=O)OC(C)(C)C)CC2)n1	< 0.05
COc1cc2c(Nc3ccc(Cl)c(Cl)c3)ncnc2cc1OCc1nc(CN2CCCN(C)CC2)cs1	< 0.05
COc1cc2c(Nc3cccc(Br)c3Cl)ncnc2cc1OCC1CN(C)CCO1 (stereo not given)	< 0.05
COc1cc2c(Nc3cc(F)cc(F)c3)ncnc2cc1O[C@@H]1CO[C@@H]2[C@H]1OC[C@H]2F	< 0.05
COc1cc2c(Nc3ccc(Cl)c(Cl)c3)ncnc2cc1OCc1noc(-c2ccccc2OC)n1	< 0.05
COc1cc2c(Nc3ccc(Br)cc3F)ncnc2cc1OCC1CCN(C(N)=NC#N)CC1	< 0.05
COc1cc2c(Nc3ccc(C)c(Cl)c3Cl)ncnc2cc1OCC1CN(C)CCO1 (stereo not given)	< 0.05
COc1cc2c(Nc3ccc(Cl)c(Cl)c3F)ncnc2cc1O[C@H]1CO[C@H]2[C@@H]1OC[C@@H]2OC	< 0.05
COc1cc2c(Nc3ccc(Br)c(Cl)c3)ncnc2cc1O[C@H]1CO[C@@H]2[C@H]1OC[C@@H]2N1CCCC1	< 0.05
COc1cc2c(Nc3ccc(F)c(Cl)c3F)ncnc2cc1OCC1CO[C@@H]2[C@@H](OC)CO[C@H]12 (stereo not given in full)	< 0.05
COc1cc2c(Nc3cccc(C(F)(F)F)c3F)ncnc2cc1O[C@@H]1CO[C@@H]2[C@H]1OC[C@H]2F	< 0.05
COc1cc2c(Nc3ccc(Br)c(Cl)c3F)ncnc2cc1OC[C@@H]1CN2CCOC[C@H]2CO1	< 0.05
COc1cc2c(Nc3cccc(Br)c3)ncnc2cc1O[C@@H]1CO[C@@H]2[C@H]1OC[C@H]2F	< 0.05
COc1cc2c(Nc3cccc(Cl)c3F)ncnc2cc1OCC1CN(C)CCO1 (stereo not given)	< 0.05
COc1cc2c(Nc3ccc(Cl)c(Cl)c3)ncnc2cc1OCc1nc(CS(=O)(=O)c2ccccn2)no1	< 0.05
COc1cc2c(Nc3ccc(Br)c(Cl)c3)ncnc2cc1O[C@H]1CO[C@H]2[C@@H]1OC[C@]2(O)C(F)(F)F	< 0.05
COc1cc2c(Nc3cc(Cl)c(Cl)cc3F)ncnc2cc1OC[C@@H]1CN2CCOC[C@H]2CO1	< 0.05

Structure (SMILES)	IC50 [µM]
COc1cc2c(Nc3ccc(Cl)c(Cl)c3)ncnc2cc1OCc1csc(C2CCN(C)CC2)n1	< 0.05
COc1cc2c(Nc3ccc(Br)c(Cl)c3Cl)ncnc2cc1OC[C@@H]1CO[C@H]2[C@@H]1OC[C@@H]2O	< 0.05
COc1cc2c(Nc3ccc(Cl)c(Cl)c3)ncnc2cc1OCc1nc([C@@H]2CCCN2)no1	< 0.05
COc1cc2c(Nc3ccc(F)c(Cl)c3)ncnc2cc1O[C@@H]1CO[C@@H]2[C@H]1OC[C@H]2F	< 0.05
COc1cc2c(Nc3ccc(Br)c(Cl)c3)ncnc2cc1O[C@H]1COC[C@H]1OC	< 0.05
COc1cc2c(Nc3ccc(Cl)c(Cl)c3)ncnc2cc1OCc1csc(CN2CCCC2)n1	< 0.05
COc1cc2c(Nc3ccc(C)c(Br)c3)ncnc2cc1O[C@@H]1CO[C@@H]2[C@H]1OC[C@H]2F	< 0.05
COc1cc2c(Nc3ccc(Br)cc3Br)ncnc2cc1OCC1CN(C)CCO1 (stereo not given)	< 0.05
COc1cc2c(Nc3cc(Cl)c(Cl)cc3F)ncnc2cc1O[C@@H]1CO[C@@H]2[C@H]1OC[C@H]2F	< 0.05
COc1cc2c(Nc3ccc(Cl)c(Cl)c3)ncnc2cc1OCc1noc(C2CCCCN2C(=O)OC(C)(C)C)n1 (stereo not given)	< 0.05
COc1cc2c(Nc3ccc(Cl)c(Cl)c3F)ncnc2cc1OC[C@H]1C[C@@H]2CN(C)C[C@@H]2C1	< 0.05
COc1cc2c(Nc3ccc(Cl)c(Cl)c3)ncnc2cc1OCC1CN(C(=O)c2c(F)ccc(F)c2F)CCO1 (stereo not given)	< 0.05
COc1cc2c(Nc3ccc(Br)c(Cl)c3Cl)ncnc2cc1O[C@@H]1CO[C@@H]2[C@H]1OC[C@H]2F	< 0.05
COc1cc2c(Nc3ccc(Cl)c(Cl)c3)ncnc2cc1OCc1cc(F)cc2c1OCOC2	< 0.05
COc1cc2c(Nc3ccccc3F)ncnc2cc1O[C@@H]1CO[C@@H]2[C@H]1OC[C@H]2F	< 0.05
COc1cc2c(Nc3cc(Cl)c(Br)cc3F)ncnc2cc1O[C@@H]1CO[C@@H]2[C@H]1OC[C@H]2F	< 0.05
COc1cc2c(Nc3ccc(Cl)c(Cl)c3)ncnc2cc1OCc1noc(C2CCCN2)n1 (stereo not given)	< 0.05
COc1cc2c(Nc3ccc(F)cc3Br)ncnc2cc1O[C@@H]1CO[C@@H]2[C@H]1OC[C@H]2F	< 0.05
COc1cc2c(Nc3ccc(Br)c(Cl)c3F)ncnc2cc1O[C@H]1CO[C@H]2[C@@H]1OC[C@@H]2OC	< 0.05

Now from value to compound:

IC50 [µM]	Structure (SMILES)
< 0.05	CCCC(C)C(=O)N1CCOC(COc2cc3ncnc(Nc4ccc(Cl)c(Cl)c4)c3cc2OC)C1 (stereo not given)
< 0.05	CCC(CC)CN1CCCOC(COc2cc3ncnc(Nc4ccc(Cl)c(Cl)c4)c3cc2OC)C1 (stereo not given)
< 0.05	COc1cc2c(Nc3ccc(Cl)c(Cl)c3)ncnc2cc1OCC1COCCN1C (stereo not given)
< 0.05	COC(=O)CCC(=O)N1CCOC(COc2cc3ncnc(Nc4ccc(Cl)c(Cl)c4)c3cc2OC)C1 (stereo not given)
< 0.05	COc1cc2c(Nc3ccc(Cl)c(Cl)c3)ncnc2cc1OCC1CN(CC2CCCCC2)CCCO1 (stereo not given)
< 0.05	COc1cc2c(Nc3ccc(Cl)c(Cl)c3)ncnc2cc1OCC1CCCCC1
< 0.05	COc1cc2c(Nc3ccc(Cl)c(Cl)c3)ncnc2cc1OCC1CN(CCCCCC#N)CCO1 (stereo not given)
< 0.05	COc1cc2c(Nc3ccc(Cl)c(Cl)c3)ncnc2cc1OCCC1CCCN1C (stereo not given)
< 0.05	COc1cc2c(Nc3ccc(Cl)c(Cl)c3)ncnc2cc1OCC1CN(CCc2ccccc2)CCO1 (stereo not given)
< 0.05	COc1cc2c(Nc3ccc(Cl)c(Cl)c3)ncnc2cc1OCC1CN(C(N)=NC#N)CCCO1 (stereo not given)
< 0.05	COc1cc2c(Nc3ccc(Cl)c(Cl)c3)ncnc2cc1OCC1CN(CCO)CCO1 (stereo not given)
< 0.05	COc1cc2c(Nc3ccc(Cl)c(Cl)c3)ncnc2cc1OCC1CN(C(=O)c2ccc(Cl)nc2)CCO1 (stereo not given)
< 0.05	CCC#CCN1CCOC(COc2cc3ncnc(Nc4ccc(Cl)c(Cl)c4)c3cc2OC)C1 (stereo not given)
< 0.05	COc1cc2c(Nc3ccc(Cl)c(Cl)c3)ncnc2cc1OCC1CN(CC2CCCCC2)CCO1 (stereo not given)
< 0.05	COc1cc2c(Nc3ccc(Cl)c(Cl)c3)ncnc2cc1OCC1CN(c2ccncc2)CCO1 (stereo not given)
< 0.05	CCCC(CCC)C(=O)N1CCOC(COc2cc3ncnc(Nc4ccc(Cl)c(Cl)c4)c3cc2OC)C1 (stereo not given)
< 0.05	CCC(CC)CN1CCOC(COc2cc3ncnc(Nc4ccc(Cl)c(Cl)c4)c3cc2OC)C1 (stereo not given)
< 0.05	COC(=O)CCCCN1CCOC(COc2cc3ncnc(Nc4ccc(Cl)c(Cl)c4)c3cc2OC)C1 (stereo not given)
< 0.05	CCC1(C)CN(C)CC(COc2cc3ncnc(Nc4ccc(Cl)c(Cl)c4)c3cc2OC)O1 (stereo not given)
< 0.05	COc1cc2c(Nc3ccc(Cl)c(Cl)c3)ncnc2cc1OCCN1CCCCC1
< 0.05	CCN1CCOC(COc2cc3ncnc(Nc4ccc(Cl)c(Cl)c4)c3cc2OC)C1 (stereo not given)
< 0.05	COc1cc2c(Nc3ccc(Cl)c(Cl)c3)ncnc2cc1OCC1CN(C(=O)c2c(C)noc2C)CCO1 (stereo not given)
< 0.05	CCCCCN1CCOC(COc2cc3ncnc(Nc4ccc(Cl)c(Cl)c4)c3cc2OC)C1 (stereo not given)
< 0.05	COc1cc2c(Nc3ccc(Br)c(Cl)c3)ncnc2cc1OCC1CN(C)CCO1 (stereo not given)
< 0.05	COCCN1CCOC(COc2cc3ncnc(Nc4ccc(Cl)c(Cl)c4)c3cc2OC)C1 (stereo not given)
< 0.05	COc1cc2c(Nc3ccc(Cl)c(Cl)c3)ncnc2cc1OCC1CN(C(=NC#N)N2CCCC2)CCO1 (stereo not given)
< 0.05	COc1cc2c(Nc3ccc(Cl)c(Cl)c3)ncnc2cc1OCC1CN(CCC2CCCCC2)CCO1 (stereo not given)
< 0.05	COc1cc2c(Nc3ccc(Cl)c(Cl)c3)ncnc2cc1OCC1CN(CCCOC2CCCCO2)CCCO1 (stereo not given)
< 0.05	COCCNC(=NC#N)N1CCOC(COc2cc3ncnc(Nc4ccc(Cl)c(Cl)c4)c3cc2OC)C1 (stereo not given)
